Each compound was assayed against Histone deacetylase (assay: Inhibitory activity against partially purified histone deacetylase of human leukemia K562 cells.).
Type: cell-based

Structure (SMILES)	IC50
CCCC(=O)[O-].[Na+] [SODIUM BUTYRATE]	140 µM
O=C(NCc1ccc(C(=O)Nc2ccccc2O)cc1)OCc1cccnc1	2.2 µM
O=C(NCc1ccc(C(=O)Nc2ccccc2)cc1)OCc1cccnc1	> 100 µM
Nc1cccc(NC(=O)c2ccc(CNC(=O)OCc3cccnc3)cc2)c1	> 100 µM
Cc1cccc(NC(=O)c2ccc(CNC(=O)OCc3cccnc3)cc2)c1N	> 100 µM
Nc1ccc(NC(=O)c2ccc(CNC(=O)OCc3cccnc3)cc2)cc1	> 100 µM
CC(=O)Nc1ccccc1NC(=O)c1ccc(CNC(=O)OCc2cccnc2)cc1	> 100 µM

Continued, values first:

IC50	Structure (SMILES)
44 µM	COc1ccc(NC(=O)c2ccc(CNC(=O)OCc3cccnc3)cc2)c(N)c1
6 µM	Nc1ccc(F)cc1NC(=O)c1ccc(CNC(=O)OCc2cccnc2)cc1
2.8 µM	Cc1ccc(N)c(NC(=O)c2ccc(CNC(=O)OCc3cccnc3)cc2)c1
40 µM	Nc1cc(Cl)ccc1NC(=O)c1ccc(CNC(=O)OCc2cccnc2)cc1
7.7 µM	Nc1ccc(Cl)cc1NC(=O)c1ccc(CNC(=O)OCc2cccnc2)cc1
4.6 µM	COc1ccc(N)c(NC(=O)c2ccc(CNC(=O)OCc3cccnc3)cc2)c1
> 100 µM	Cc1ccc(NC(=O)c2ccc(CNC(=O)OCc3cccnc3)cc2)c(N)c1
